From article doi:10.1101/2024.08.19.608619, “Discovery of potent SARS-CoV-2 nsp3 macrodomain inhibitors uncovers lack of translation to cellular antiviral response” (bioRxiv, 2024) come the findings set out here.

Like-named read-outs stand apart in the source and are kept apart here.

Test in all cases: biochemical
Design in all cases: In vitro kinase panel profiling, per cent remaining kinase activity at 10 uM

The target in one assay is Fyn(h) (Homo sapiens, UniProt P06241). To be noted: atp_concentration=70, read-out: % of control remaining. From the text: (§1) We derisk potential for off-target activity by profiling the compound in a CEREP panel, a standard secondary pharmacology assessment, as well as a kinase panel to derisk a potential hinge-binding motif in our leads, and a PARP panel to derisk activity against human […]. Reassuringly, the compounds are selective, with the only off-targets being moderate human CHRM2 and KOR receptors activity associated with ASAP-0011198.
Fyn(h), sequence (P06241 whole entry): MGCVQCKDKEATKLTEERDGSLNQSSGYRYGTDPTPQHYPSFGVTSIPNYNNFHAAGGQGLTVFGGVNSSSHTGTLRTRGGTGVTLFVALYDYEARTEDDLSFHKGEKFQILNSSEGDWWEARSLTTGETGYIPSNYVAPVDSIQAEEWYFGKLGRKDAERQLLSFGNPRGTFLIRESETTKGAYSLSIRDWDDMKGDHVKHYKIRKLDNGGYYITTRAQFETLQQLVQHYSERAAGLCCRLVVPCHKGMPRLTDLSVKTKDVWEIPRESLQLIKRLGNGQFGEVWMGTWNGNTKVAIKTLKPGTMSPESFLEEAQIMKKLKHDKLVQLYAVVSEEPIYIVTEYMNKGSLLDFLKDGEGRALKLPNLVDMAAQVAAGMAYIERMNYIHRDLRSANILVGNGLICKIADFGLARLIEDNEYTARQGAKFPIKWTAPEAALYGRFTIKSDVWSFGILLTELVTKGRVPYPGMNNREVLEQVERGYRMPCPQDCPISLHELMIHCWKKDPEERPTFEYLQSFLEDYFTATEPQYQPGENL

The next assay concerns the target T1, eEF-2K(h) (Homo sapiens, UniProt O00418).
T1 construct: gene EEF2K
T1 sequence (O00418 1-725): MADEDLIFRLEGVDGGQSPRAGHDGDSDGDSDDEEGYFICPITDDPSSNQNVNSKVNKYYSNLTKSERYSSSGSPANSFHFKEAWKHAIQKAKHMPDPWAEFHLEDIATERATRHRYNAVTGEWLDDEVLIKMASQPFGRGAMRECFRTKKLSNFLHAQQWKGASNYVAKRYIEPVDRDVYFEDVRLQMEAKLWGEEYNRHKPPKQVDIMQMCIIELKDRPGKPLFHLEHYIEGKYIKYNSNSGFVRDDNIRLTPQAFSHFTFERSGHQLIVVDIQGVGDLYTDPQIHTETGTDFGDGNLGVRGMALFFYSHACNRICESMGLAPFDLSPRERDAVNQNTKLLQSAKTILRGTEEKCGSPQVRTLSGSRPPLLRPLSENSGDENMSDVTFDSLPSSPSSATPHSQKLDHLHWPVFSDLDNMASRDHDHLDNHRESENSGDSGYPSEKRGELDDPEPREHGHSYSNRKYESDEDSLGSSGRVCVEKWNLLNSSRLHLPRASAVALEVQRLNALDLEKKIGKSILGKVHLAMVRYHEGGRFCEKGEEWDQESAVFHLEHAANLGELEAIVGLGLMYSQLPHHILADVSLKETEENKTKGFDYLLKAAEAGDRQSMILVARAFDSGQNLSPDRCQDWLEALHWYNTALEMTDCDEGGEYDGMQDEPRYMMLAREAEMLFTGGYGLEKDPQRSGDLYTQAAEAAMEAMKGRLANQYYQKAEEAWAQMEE
The conditions noted are these: atp_concentration=15, read-out: % of control remaining.
Excerpt: as §1

Another assay deals with T2, PDGFRβ(h) (Homo sapiens, UniProt P09619).
T2 construct: gene PDGFRB
The conditions noted are these: atp_concentration=200, read-out: % of control remaining.
Excerpt: as §1

For the next assay, the target named is EphA5(h) (Homo sapiens, UniProt P54756). The conditions noted are these: atp_concentration=10, read-out: % of control remaining.
Excerpt: as §1

A further assay addresses SRPK1(h) (Homo sapiens, UniProt Q96SB4). The conditions noted are these: atp_concentration=10, read-out: % of control remaining.
Excerpt: as §1

The target in another assay is T3, ROCK-I(h) (Homo sapiens, UniProt Q13464).
T3 construct: gene ROCK1
To be noted: atp_concentration=70, read-out: % of control remaining.
Excerpt: as §1

The target in another assay is T4, Pim-1(h) (Homo sapiens, UniProt P11309).
T4 construct: gene PIM1
T4 sequence (P11309 whole entry): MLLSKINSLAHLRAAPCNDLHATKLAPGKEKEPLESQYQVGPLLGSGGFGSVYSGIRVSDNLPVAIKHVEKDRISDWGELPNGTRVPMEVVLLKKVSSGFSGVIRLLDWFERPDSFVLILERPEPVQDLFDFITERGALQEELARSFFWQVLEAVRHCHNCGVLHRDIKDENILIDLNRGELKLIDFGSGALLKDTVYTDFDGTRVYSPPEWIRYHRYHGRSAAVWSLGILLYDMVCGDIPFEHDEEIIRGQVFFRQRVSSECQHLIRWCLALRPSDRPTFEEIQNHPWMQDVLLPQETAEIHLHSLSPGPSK
The conditions noted are these: atp_concentration=90, read-out: % of control remaining.
Excerpt: as §1

For a further assay, the target named is PAK2(h) (Homo sapiens, UniProt Q13177). To be noted: atp_concentration=90, read-out: % of control remaining.
Excerpt: as §1

For another assay, the target named is ALK(h) (Homo sapiens, UniProt Q9UM73). To be noted: atp_concentration=200, read-out: % of control remaining.
ALK(h), sequence (Q9UM73 whole entry): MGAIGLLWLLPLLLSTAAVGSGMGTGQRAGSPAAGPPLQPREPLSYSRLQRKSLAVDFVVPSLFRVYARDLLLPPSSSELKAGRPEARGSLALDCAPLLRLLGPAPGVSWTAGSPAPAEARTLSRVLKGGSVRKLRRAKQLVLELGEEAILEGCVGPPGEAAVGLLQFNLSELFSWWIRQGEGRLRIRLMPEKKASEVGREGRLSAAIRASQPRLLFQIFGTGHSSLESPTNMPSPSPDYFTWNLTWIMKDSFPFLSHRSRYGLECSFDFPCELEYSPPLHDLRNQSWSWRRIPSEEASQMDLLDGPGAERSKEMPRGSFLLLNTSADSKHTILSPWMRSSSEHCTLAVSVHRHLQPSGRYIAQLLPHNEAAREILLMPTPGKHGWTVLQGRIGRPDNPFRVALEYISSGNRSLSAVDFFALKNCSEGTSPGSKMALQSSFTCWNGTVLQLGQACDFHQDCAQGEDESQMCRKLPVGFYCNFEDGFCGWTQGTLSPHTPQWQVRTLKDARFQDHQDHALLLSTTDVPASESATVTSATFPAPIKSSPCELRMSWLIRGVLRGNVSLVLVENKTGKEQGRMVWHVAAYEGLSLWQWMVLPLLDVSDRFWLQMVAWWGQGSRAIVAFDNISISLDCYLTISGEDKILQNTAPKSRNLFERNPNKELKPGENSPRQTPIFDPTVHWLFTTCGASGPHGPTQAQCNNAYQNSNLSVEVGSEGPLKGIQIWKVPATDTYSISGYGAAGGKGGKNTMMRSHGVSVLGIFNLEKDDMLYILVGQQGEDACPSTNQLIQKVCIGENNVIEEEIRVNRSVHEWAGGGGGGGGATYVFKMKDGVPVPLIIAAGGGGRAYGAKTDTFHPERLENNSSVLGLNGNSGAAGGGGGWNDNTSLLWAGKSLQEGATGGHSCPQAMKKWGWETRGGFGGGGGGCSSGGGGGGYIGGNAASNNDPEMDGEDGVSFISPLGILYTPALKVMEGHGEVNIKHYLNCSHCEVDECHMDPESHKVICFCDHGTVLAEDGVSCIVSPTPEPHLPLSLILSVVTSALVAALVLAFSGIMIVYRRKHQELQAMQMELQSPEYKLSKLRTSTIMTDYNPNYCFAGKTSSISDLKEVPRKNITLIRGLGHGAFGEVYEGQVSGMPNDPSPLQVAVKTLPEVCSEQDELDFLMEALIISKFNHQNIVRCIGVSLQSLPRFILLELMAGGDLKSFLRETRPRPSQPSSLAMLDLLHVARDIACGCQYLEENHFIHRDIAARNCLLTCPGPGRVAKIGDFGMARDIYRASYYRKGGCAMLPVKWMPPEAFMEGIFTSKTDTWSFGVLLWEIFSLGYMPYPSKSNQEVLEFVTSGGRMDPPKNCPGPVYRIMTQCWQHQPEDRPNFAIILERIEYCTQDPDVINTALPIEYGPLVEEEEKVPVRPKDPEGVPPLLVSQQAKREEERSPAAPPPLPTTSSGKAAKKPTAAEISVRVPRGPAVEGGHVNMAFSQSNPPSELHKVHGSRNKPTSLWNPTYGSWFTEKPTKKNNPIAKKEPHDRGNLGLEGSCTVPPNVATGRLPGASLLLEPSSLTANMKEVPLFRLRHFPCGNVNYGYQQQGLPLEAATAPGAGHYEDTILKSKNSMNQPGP
Excerpt: as §1

Another assay deals with KDR(h) (Homo sapiens, UniProt P35968). The conditions noted are these: atp_concentration=90, read-out: % of control remaining.
Excerpt: as §1

The next assay has as its target T5, PKA(h) (Homo sapiens, UniProt P17612).
T5 construct: gene PRKACA
To be noted: atp_concentration=10, read-out: % of control remaining.
Excerpt: as §1

The next assay has as its target T6, c-RAF(h) (Homo sapiens, UniProt P04049).
T6 construct: gene RAF1
The conditions noted are these: atp_concentration=120, read-out: % of control remaining.
Excerpt: as §1

The next assay deals with T7, IGF-1R(h) (Homo sapiens, UniProt P08069).
T7 construct: gene IGF1R
To be noted: atp_concentration=200, read-out: % of control remaining.
Excerpt: as §1

The target of a further assay is Plk3(h) (Homo sapiens, UniProt Q9H4B4). The conditions noted are these: atp_concentration=70, read-out: % of control remaining.
Plk3(h), sequence (Q9H4B4 whole entry): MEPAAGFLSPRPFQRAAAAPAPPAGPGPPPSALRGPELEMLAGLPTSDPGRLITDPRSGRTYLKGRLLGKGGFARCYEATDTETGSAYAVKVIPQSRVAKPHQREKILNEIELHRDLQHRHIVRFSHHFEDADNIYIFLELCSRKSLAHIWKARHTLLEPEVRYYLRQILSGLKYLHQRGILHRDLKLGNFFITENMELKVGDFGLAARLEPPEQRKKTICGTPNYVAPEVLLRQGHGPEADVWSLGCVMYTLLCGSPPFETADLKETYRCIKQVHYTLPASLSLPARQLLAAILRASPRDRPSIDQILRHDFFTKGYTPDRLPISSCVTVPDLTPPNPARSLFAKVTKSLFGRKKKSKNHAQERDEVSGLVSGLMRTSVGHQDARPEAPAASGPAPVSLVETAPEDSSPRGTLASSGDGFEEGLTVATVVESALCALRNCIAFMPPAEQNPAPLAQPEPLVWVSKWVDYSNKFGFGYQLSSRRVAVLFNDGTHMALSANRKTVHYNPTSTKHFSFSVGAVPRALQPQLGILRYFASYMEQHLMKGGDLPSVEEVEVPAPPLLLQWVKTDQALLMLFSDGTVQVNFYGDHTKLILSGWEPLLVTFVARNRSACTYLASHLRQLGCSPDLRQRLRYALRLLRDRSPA
Excerpt: as §1

The target of a further assay is T8, MEK1(h) (Homo sapiens, UniProt Q02750).
T8 construct: gene MAP2K1
T8 sequence (Q02750 whole entry): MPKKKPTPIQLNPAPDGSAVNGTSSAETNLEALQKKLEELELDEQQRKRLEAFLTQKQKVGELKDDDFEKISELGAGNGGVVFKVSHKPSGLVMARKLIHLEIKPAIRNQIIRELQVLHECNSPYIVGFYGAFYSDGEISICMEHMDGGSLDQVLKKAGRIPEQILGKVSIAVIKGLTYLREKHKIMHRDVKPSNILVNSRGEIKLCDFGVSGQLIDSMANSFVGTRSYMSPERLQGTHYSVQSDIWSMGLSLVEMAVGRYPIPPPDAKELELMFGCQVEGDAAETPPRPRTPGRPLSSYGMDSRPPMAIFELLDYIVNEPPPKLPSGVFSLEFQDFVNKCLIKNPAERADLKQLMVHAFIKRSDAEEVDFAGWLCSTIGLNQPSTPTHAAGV
To be noted: atp_concentration=10, read-out: % of control remaining.
Excerpt: as §1

T6 sequence (P04049 whole entry): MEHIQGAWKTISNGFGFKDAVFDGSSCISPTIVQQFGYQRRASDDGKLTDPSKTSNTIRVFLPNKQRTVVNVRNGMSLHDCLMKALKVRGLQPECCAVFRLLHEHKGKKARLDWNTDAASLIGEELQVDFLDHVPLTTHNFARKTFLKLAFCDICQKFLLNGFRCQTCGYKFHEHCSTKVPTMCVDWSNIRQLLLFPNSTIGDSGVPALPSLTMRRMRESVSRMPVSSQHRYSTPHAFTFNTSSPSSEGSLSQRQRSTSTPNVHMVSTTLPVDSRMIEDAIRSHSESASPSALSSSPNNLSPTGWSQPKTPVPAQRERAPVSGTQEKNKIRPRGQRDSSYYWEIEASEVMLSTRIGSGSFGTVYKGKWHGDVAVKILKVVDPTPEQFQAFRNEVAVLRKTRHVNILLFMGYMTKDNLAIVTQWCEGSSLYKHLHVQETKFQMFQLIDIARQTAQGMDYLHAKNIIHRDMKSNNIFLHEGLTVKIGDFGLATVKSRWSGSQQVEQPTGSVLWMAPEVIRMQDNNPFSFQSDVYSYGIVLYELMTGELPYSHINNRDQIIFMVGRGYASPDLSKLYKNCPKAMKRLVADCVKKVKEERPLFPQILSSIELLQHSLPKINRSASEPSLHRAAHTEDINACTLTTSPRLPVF
SRPK1(h), sequence (Q96SB4 whole entry): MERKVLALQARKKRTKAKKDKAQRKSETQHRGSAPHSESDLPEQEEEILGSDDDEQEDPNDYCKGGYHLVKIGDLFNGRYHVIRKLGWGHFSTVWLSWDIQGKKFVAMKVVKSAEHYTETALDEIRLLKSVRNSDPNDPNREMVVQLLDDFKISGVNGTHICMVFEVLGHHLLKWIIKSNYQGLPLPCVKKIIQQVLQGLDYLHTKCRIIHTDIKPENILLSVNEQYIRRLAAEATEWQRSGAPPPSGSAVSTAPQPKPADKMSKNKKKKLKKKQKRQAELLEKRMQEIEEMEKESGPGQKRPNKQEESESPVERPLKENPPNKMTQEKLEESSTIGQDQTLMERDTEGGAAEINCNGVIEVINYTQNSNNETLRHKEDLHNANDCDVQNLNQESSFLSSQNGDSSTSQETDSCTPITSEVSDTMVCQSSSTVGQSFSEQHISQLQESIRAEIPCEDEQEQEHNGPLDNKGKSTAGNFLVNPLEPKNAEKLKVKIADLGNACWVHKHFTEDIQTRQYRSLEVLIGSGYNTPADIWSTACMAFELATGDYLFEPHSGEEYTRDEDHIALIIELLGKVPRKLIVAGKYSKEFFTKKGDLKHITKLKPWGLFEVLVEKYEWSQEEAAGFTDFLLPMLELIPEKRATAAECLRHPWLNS

For `CC(C)[C@@H](Nc1ncnc2[nH]c(-c3cnn(C)c3C#N)cc12)c1ccc2c(n1)OCCO2` [ASAP-0010716], the remaining activity at 10 µM on Fyn(h) (batch_name=ASAP-0010716-002) is 55%; at eEF-2K(h) (batch_name=ASAP-0010716-002) it was 106%; on PDGFRβ(h) (batch_name=ASAP-0010716-002) it was 93%; at EphA5(h) (batch_name=ASAP-0010716-002), 90%; at SRPK1(h) (batch_name=ASAP-0010716-002) it was 104%; on ROCK-I(h) (batch_name=ASAP-0010716-002), 107%. For the same molecule, the remaining activity at 10 µM was 99% at Pim-1(h) (batch_name=ASAP-0010716-002); 99% at PAK2(h) (batch_name=ASAP-0010716-002); 106% at ALK(h) (batch_name=ASAP-0010716-002); 86% on KDR(h) (batch_name=ASAP-0010716-002); 93% at PKA(h) (batch_name=ASAP-0010716-002); 90% on c-RAF(h) (batch_name=ASAP-0010716-002). The remaining activity at 10 µM at IGF-1R(h) (batch_name=ASAP-0010716-002) amounted to 94%; at Plk3(h) (batch_name=ASAP-0010716-002) it was 89%; on MEK1(h) (batch_name=ASAP-0010716-002) it was 103%.
Turning to `CNCc1cc(-c2cc3c(N[C@@H](c4ccc5c(c4)S(=O)(=O)CCC5)C(C)C)ncnc3[nH]2)co1` [ASAP-0011176], the remaining activity at 10 µM on Fyn(h) (batch_name=ASAP-0011176-002) was determined as 64%; at eEF-2K(h) (batch_name=ASAP-0011176-002), 82%; at PDGFRβ(h) (batch_name=ASAP-0011176-002), 89%; on EphA5(h) (batch_name=ASAP-0011176-002), 78%; at SRPK1(h) (batch_name=ASAP-0011176-002), 101%; on ROCK-I(h) (batch_name=ASAP-0011176-002) it was 102%. Moreover, the remaining activity at 10 µM at Pim-1(h) (batch_name=ASAP-0011176-002) came to 93%; at PAK2(h) (batch_name=ASAP-0011176-002) it was 94%; on ALK(h) (batch_name=ASAP-0011176-002), 99%; at KDR(h) (batch_name=ASAP-0011176-002), 88%; at PKA(h) (batch_name=ASAP-0011176-002), 96%; at c-RAF(h) (batch_name=ASAP-0011176-002), 100%. Moreover, the results for the remaining activity at 10 µM on IGF-1R(h) (batch_name=ASAP-0011176-002), on Plk3(h) (batch_name=ASAP-0011176-002) and on MEK1(h) (batch_name=ASAP-0011176-002) were 99%, 124% and 97%, respectively.
Turning to `CC(C)C(Nc1ncnc2[nH]c(C(=O)NC3CCN(C)C3)cc12)c1ccc2c(c1)S(=O)(=O)CCC2` (stereo not drawn) [ASAP-0011198], the remaining activity at 10 µM on Fyn(h) (batch_name=ASAP-0011198-002) is 107%; on eEF-2K(h) (batch_name=ASAP-0011198-002), 89%; on PDGFRβ(h) (batch_name=ASAP-0011198-002), 83%; at EphA5(h) (batch_name=ASAP-0011198-002) it was 100%; on SRPK1(h) (batch_name=ASAP-0011198-002) it was 108%; at ROCK-I(h) (batch_name=ASAP-0011198-002), 98%. For the same molecule, the remaining activity at 10 µM on Pim-1(h) (batch_name=ASAP-0011198-002) stood at 97%; at PAK2(h) (batch_name=ASAP-0011198-002), 99%; at ALK(h) (batch_name=ASAP-0011198-002) it was 106%; at KDR(h) (batch_name=ASAP-0011198-002), 96%; at PKA(h) (batch_name=ASAP-0011198-002) it was 89%; at c-RAF(h) (batch_name=ASAP-0011198-002), 105%. Moreover, the results for the remaining activity at 10 µM at IGF-1R(h) (batch_name=ASAP-0011198-002), on Plk3(h) (batch_name=ASAP-0011198-002) and at MEK1(h) (batch_name=ASAP-0011198-002) were 104%, 98% and 107%, respectively.
In the case of `Cn1ncc(-c2cc3c(N[C@@H](c4ccc5c(n4)OCCO5)C(C)(C)C)ncnc3[nH]2)c1C#N` [ASAP-0011221], the remaining activity at 10 µM came out at 82% on Fyn(h) (batch_name=ASAP-0011221-002); 124% at eEF-2K(h) (batch_name=ASAP-0011221-002); 100% at PDGFRβ(h) (batch_name=ASAP-0011221-002); 102% at EphA5(h) (batch_name=ASAP-0011221-002); 117% on SRPK1(h) (batch_name=ASAP-0011221-002); 129% at ROCK-I(h) (batch_name=ASAP-0011221-002). In addition, the remaining activity at 10 µM on Pim-1(h) (batch_name=ASAP-0011221-002) worked out at 107%; at PAK2(h) (batch_name=ASAP-0011221-002), 111%; on ALK(h) (batch_name=ASAP-0011221-002) it was 117%; at KDR(h) (batch_name=ASAP-0011221-002), 83%; on PKA(h) (batch_name=ASAP-0011221-002) it was 95%; on c-RAF(h) (batch_name=ASAP-0011221-002), 87%. For the same molecule, the values for the remaining activity at 10 µM at IGF-1R(h) (batch_name=ASAP-0011221-002), at Plk3(h) (batch_name=ASAP-0011221-002) and on MEK1(h) (batch_name=ASAP-0011221-002) were 77%, 77% and 98%, respectively.
